In PubChem BioAssay (NCI):
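1) Cells in 96-well plates. 2) Compound, 48 h, 5 concentrations. 3) Linear interpolation between surrounding doses. 4) Unreached endpoint = highest concentration. GI50 is the concentration that inhibits growth by half. The concentration for full growth arrest is given as TGI.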

How the values were obtained:
Experiment in all cases: NCI tumour cell line growth inhibition, 48 h
[1] = system: UACC-257 melanoma
[2] = system: M14 melanoma
[3] = system: RPMI-8226 leukemia
[4] = system: NCI-H226 lung
[5] = system: SF-539 CNS
[6] = system: EKVX NSCLC
[7] = system: COLO 205 colon
[8] = system: RXF 393 renal
[9] = system: SK-OV-3 ovarian
[10] = system: UO-31 renal
[11] = system: HOP-62 NSCLC
[12] = system: OVCAR-3 ovarian
[13] = system: TK-10 renal
[14] = system: KM12 colon
[15] = system: SK-MEL-2 melanoma
[16] = system: 786-0 renal
[17] = system: A549 NSCLC
[18] = system: OVCAR-4 ovarian
[19] = system: DU-145 prostate
[20] = system: MDA-MB-231 breast
[21] = system: IGROV1 ovarian
[22] = system: SW-620 colon
[23] = system: HCC-2998 colon
[24] = system: MDA-MB-435
[25] = system: CAKI-1 renal
[26] = system: MOLT-4 leukemia
[27] = system: LOX IMVI melanoma
[28] = system: SNB-75 CNS
[29] = system: HCT-116 colon
[30] = system: SNB-19 CNS
[31] = system: K-562 leukemia
[32] = system: NCI-H23 lung
[33] = system: NCI-H522 lung
[34] = system: CCRF-CEM leukemia
[35] = system: SF-268 CNS
[36] = system: A498 renal
[37] = system: HOP-92 NSCLC
[38] = system: OVCAR-8 ovarian
[39] = system: MDA-MB-468 breast
[40] = system: SN12C renal
[41] = system: ACHN renal
[42] = system: SK-MEL-28 melanoma
[43] = system: HL-60(TB) leukemia
[44] = system: BT-549 breast
[45] = system: HCT-15 colon
[46] = system: MALME-3M melanoma
[47] = system: SR leukemia
[48] = system: SK-MEL-5 melanoma
[49] = system: OVCAR-5 ovarian
[50] = system: NCI-H460 lung
[51] = system: UACC-62 melanoma
[52] = system: SF-295 CNS
[53] = system: PC-3 prostate
[54] = system: U251 CNS
[55] = system: HS 578T breast
[56] = system: MCF7 breast
[57] = system: T-47D breast
[58] = system: HT29 colon

N#Cc1c(NC(=O)c2ccc(C(F)(F)F)cc2)sc2c1CCC(O)=C2
GI50 [1]: 6.64 µM | TGI [1]: 29.4 µM | GI50 [2]: 3.6 µM | TGI [2]: 15.8 µM | GI50 [3]: 3.53 µM | TGI [3]: > 100 µM | GI50 [4]: 4.03 µM | TGI [4]: 19.2 µM | GI50 [5]: 2.1 µM | TGI [5]: 6.92 µM | GI50 [6]: 7.4 µM | TGI [6]: 31.4 µM | GI50 [7]: 13.4 µM | TGI [7]: 30 µM | GI50 [8]: 2.38 µM | TGI [8]: 12.7 µM | GI50 [9]: 4.36 µM | TGI [9]: 20 µM | GI50 [10]: 2.12 µM | TGI [10]: 16.4 µM | GI50 [11]: 4.49 µM | TGI [11]: 17.8 µM | GI50 [12]: 3.24 µM | TGI [12]: 12 µM | GI50 [13]: 13.3 µM | TGI [13]: 50.3 µM | GI50 [14]: 3.16 µM | TGI [14]: 13.1 µM | GI50 [15]: 3.21 µM | TGI [15]: 11.7 µM | GI50 [16]: 5.53 µM | TGI [16]: 22.1 µM | GI50 [17]: 6.36 µM | TGI [17]: 24.1 µM | GI50 [18]: 7.47 µM | TGI [18]: 35 µM | GI50 [19]: 6.53 µM | TGI [19]: 22 µM | GI50 [20]: 2.96 µM | TGI [20]: 14.3 µM | GI50 [21]: 5.23 µM | TGI [21]: 19 µM | GI50 [22]: 3.13 µM | TGI [22]: 14 µM | GI50 [23]: 7.46 µM | TGI [23]: 21.2 µM | GI50 [24]: 1.23 µM | TGI [24]: 3.31 µM | GI50 [25]: 3.05 µM | TGI [25]: 16 µM | GI50 [26]: 4.43 µM | TGI [26]: > 100 µM | GI50 [27]: 4.56 µM | TGI [27]: 16.8 µM | GI50 [28]: 1.12 µM | TGI [28]: 6.1 µM | GI50 [29]: 3.49 µM | TGI [29]: 13.4 µM | GI50 [30]: 7.46 µM | TGI [30]: 24.3 µM | GI50 [31]: 2.23 µM | TGI [31]: > 100 µM | GI50 [32]: 4.91 µM | TGI [32]: 22 µM | GI50 [33]: 2.53 µM | TGI [33]: 12 µM | GI50 [34]: 3.21 µM | TGI [34]: > 100 µM | GI50 [35]: 3.87 µM | TGI [35]: 20.7 µM | GI50 [36]: 14 µM | TGI [36]: 34.2 µM | GI50 [37]: 2.85 µM | TGI [37]: 21.9 µM | GI50 [38]: 5.71 µM | TGI [38]: 22.3 µM | GI50 [39]: 2.12 µM | TGI [39]: 8.11 µM | GI50 [40]: 4.08 µM | TGI [40]: 16.5 µM | GI50 [41]: 6.81 µM | TGI [41]: 27.9 µM | GI50 [42]: 6.17 µM | TGI [42]: 25.8 µM | GI50 [43]: 2.77 µM | TGI [43]: > 100 µM | GI50 [44]: 2.82 µM | TGI [44]: 19.3 µM | GI50 [45]: 3.51 µM | TGI [45]: 15.8 µM | GI50 [46]: 2.29 µM | TGI [46]: 12 µM | GI50 [47]: 1.48 µM | TGI [47]: > 100 µM | GI50 [48]: 2.71 µM | TGI [48]: 9.4 µM | GI50 [49]: 5.38 µM | TGI [49]: 25 µM | GI50 [50]: 3.53 µM | TGI [50]: 14.2 µM | GI50 [51]: 3.23 µM | TGI [51]: 16.2 µM | GI50 [52]: 4.08 µM | TGI [52]: 16.7 µM | GI50 [53]: 6.12 µM | TGI [53]: > 100 µM | GI50 [54]: 4.13 µM | TGI [54]: 16.5 µM | GI50 [55]: 2.32 µM | TGI [55]: 14.1 µM | GI50 [56]: 3.03 µM | TGI [56]: 21.7 µM | GI50 [57]: 3.13 µM | TGI [57]: 24.9 µM | GI50 [58]: 4.61 µM | TGI [58]: 18.3 µM
